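Compound exposure: 48 hours, 5 concentrations, 96-well plates. The concentration for full growth arrest is given as TGI.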
Key:
Assay in all cases: NCI anticancer screen, dose series, 48 h
SK-MEL-28 melanoma = system: SK-MEL-28 melanoma
HL-60(TB) leukemia = system: HL-60(TB) leukemia
HCT-116 colon = system: HCT-116 colon
M14 melanoma = system: M14 melanoma
MCF7 breast = system: MCF7 breast
UACC-257 melanoma = system: UACC-257 melanoma
HCT-15 colon = system: HCT-15 colon
SK-MEL-2 melanoma = system: SK-MEL-2 melanoma
786-0 renal = system: 786-0 renal
SNB-19 CNS = system: SNB-19 CNS
NCI-H226 lung = system: NCI-H226 lung
IGROV1 ovarian = system: IGROV1 ovarian
KM12 colon = system: KM12 colon
UACC-62 melanoma = system: UACC-62 melanoma
SK-OV-3 ovarian = system: SK-OV-3 ovarian
SF-268 CNS = system: SF-268 CNS
PC-3 prostate = system: PC-3 prostate
SN12C renal = system: SN12C renal
NCI-H522 lung = system: NCI-H522 lung
MOLT-4 leukemia = system: MOLT-4 leukemia
OVCAR-4 ovarian = system: OVCAR-4 ovarian
SW-620 colon = system: SW-620 colon
OVCAR-8 ovarian = system: OVCAR-8 ovarian
NCI-H460 lung = system: NCI-H460 lung
OVCAR-5 ovarian = system: OVCAR-5 ovarian
U251 CNS = system: U251 CNS
UO-31 renal = system: UO-31 renal
HS 578T breast = system: HS 578T breast
RXF 393 renal = system: RXF 393 renal
SF-539 CNS = system: SF-539 CNS
OVCAR-3 ovarian = system: OVCAR-3 ovarian
CCRF-CEM leukemia = system: CCRF-CEM leukemia
HOP-92 NSCLC = system: HOP-92 NSCLC
SF-295 CNS = system: SF-295 CNS
MDA-MB-231 breast = system: MDA-MB-231 breast
DU-145 prostate = system: DU-145 prostate
TK-10 renal = system: TK-10 renal
MDA-N = system: MDA-N
BT-549 breast = system: BT-549 breast
MDA-MB-435 = system: MDA-MB-435
CAKI-1 renal = system: CAKI-1 renal
EKVX NSCLC = system: EKVX NSCLC
ACHN renal = system: ACHN renal
MALME-3M melanoma = system: MALME-3M melanoma
HT29 colon = system: HT29 colon
HCC-2998 colon = system: HCC-2998 colon
NCI-H23 lung = system: NCI-H23 lung
LOX IMVI melanoma = system: LOX IMVI melanoma
SK-MEL-5 melanoma = system: SK-MEL-5 melanoma
A549 NSCLC = system: A549 NSCLC
NCI/ADR-RES ovarian = system: NCI/ADR-RES ovarian
COLO 205 colon = system: COLO 205 colon
K-562 leukemia = system: K-562 leukemia
A498 renal = system: A498 renal
T-47D breast = system: T-47D breast
SNB-75 CNS = system: SNB-75 CNS
RPMI-8226 leukemia = system: RPMI-8226 leukemia
HOP-62 NSCLC = system: HOP-62 NSCLC

With `CC(C#N)NCc1ccc(C(C)NC(C)C#N)cc1` (stereo unspecified) the TGI (SK-MEL-28 melanoma) was greater than 100 µM, the TGI (HL-60(TB) leukemia) was greater than 100 µM and the TGI (HCT-116 colon) was greater than 100 µM. For the same compound, the TGI (M14 melanoma) was greater than 100 µM, the TGI (MCF7 breast) was greater than 100 µM and the TGI (UACC-257 melanoma) was greater than 100 µM. For the same compound, the TGI (HCT-15 colon) was greater than 100 µM, the TGI (SK-MEL-2 melanoma) was greater than 100 µM and the TGI (786-0 renal) was greater than 100 µM. For the same compound, the TGI (SNB-19 CNS) was greater than 100 µM, the TGI (NCI-H226 lung) was greater than 100 µM and the TGI (IGROV1 ovarian) was greater than 100 µM. The TGI (KM12 colon) was greater than 100 µM, the TGI (UACC-62 melanoma) was greater than 100 µM and the TGI (SK-OV-3 ovarian) was greater than 100 µM. The TGI (SF-268 CNS) was greater than 100 µM, the TGI (PC-3 prostate) was greater than 100 µM and the TGI (SN12C renal) was greater than 100 µM. For the same compound, the TGI (NCI-H522 lung) was greater than 100 µM, the TGI (MOLT-4 leukemia) was greater than 100 µM and the TGI (OVCAR-4 ovarian) was greater than 100 µM. For the same compound, the TGI (SW-620 colon) was greater than 100 µM, the TGI (OVCAR-8 ovarian) was greater than 100 µM and the TGI (NCI-H460 lung) was greater than 100 µM. It also gave a TGI (OVCAR-5 ovarian) greater than 100 µM, a TGI (U251 CNS) greater than 100 µM and a TGI (UO-31 renal) greater than 100 µM. The TGI (HS 578T breast) was greater than 100 µM, the TGI (RXF 393 renal) was greater than 100 µM and the TGI (SF-539 CNS) was greater than 100 µM. It also gave a TGI (OVCAR-3 ovarian) greater than 100 µM, a TGI (CCRF-CEM leukemia) greater than 100 µM and a TGI (HOP-92 NSCLC) greater than 100 µM. The TGI (SF-295 CNS) was greater than 100 µM, the TGI (MDA-MB-231 breast) was greater than 100 µM and the TGI (DU-145 prostate) was greater than 100 µM. It also gave a TGI (TK-10 renal) greater than 100 µM, a TGI (MDA-N) greater than 100 µM and a TGI (BT-549 breast) greater than 100 µM. It also gave a TGI (MDA-MB-435) greater than 100 µM, a TGI (CAKI-1 renal) greater than 100 µM and a TGI (EKVX NSCLC) greater than 100 µM. The TGI (ACHN renal) was greater than 100 µM, the TGI (MALME-3M melanoma) was greater than 100 µM and the TGI (HT29 colon) was greater than 100 µM. For the same compound, the TGI (HCC-2998 colon) was greater than 100 µM, the TGI (NCI-H23 lung) was greater than 100 µM and the TGI (LOX IMVI melanoma) was greater than 100 µM. It also gave a TGI (SK-MEL-5 melanoma) greater than 100 µM, a TGI (A549 NSCLC) greater than 100 µM and a TGI (NCI/ADR-RES ovarian) greater than 100 µM. It also gave a TGI (COLO 205 colon) greater than 100 µM, a TGI (K-562 leukemia) greater than 100 µM and a TGI (A498 renal) greater than 100 µM. For the same compound, the TGI (T-47D breast) was greater than 100 µM.
`Clc1ccc(N=C2c3ccccc3CN2c2ccc(Cl)cc2)cc1` gave a TGI (SK-MEL-28 melanoma) greater than 100 µM, a TGI (HCT-116 colon) greater than 100 µM and a TGI (M14 melanoma) greater than 100 µM. It also gave a TGI (MCF7 breast) greater than 100 µM, a TGI (UACC-257 melanoma) greater than 100 µM and a TGI (HCT-15 colon) greater than 100 µM. For the same compound, the TGI (SK-MEL-2 melanoma) was greater than 100 µM, the TGI (786-0 renal) was greater than 100 µM and the TGI (SNB-19 CNS) was greater than 100 µM. The TGI (NCI-H226 lung) was greater than 100 µM, the TGI (SNB-75 CNS) was greater than 100 µM and the TGI (IGROV1 ovarian) was greater than 100 µM. The TGI (KM12 colon) was greater than 100 µM, the TGI (UACC-62 melanoma) was greater than 100 µM and the TGI (SK-OV-3 ovarian) was greater than 100 µM. It also gave a TGI (SF-268 CNS) greater than 100 µM, a TGI (PC-3 prostate) greater than 100 µM and a TGI (SN12C renal) greater than 100 µM. It also gave a TGI (NCI-H522 lung) greater than 100 µM, a TGI (MOLT-4 leukemia) greater than 100 µM and a TGI (OVCAR-4 ovarian) greater than 100 µM. For the same compound, the TGI (SW-620 colon) was greater than 100 µM, the TGI (OVCAR-8 ovarian) was greater than 100 µM and the TGI (NCI-H460 lung) was greater than 100 µM. It also gave a TGI (OVCAR-5 ovarian) greater than 100 µM, a TGI (U251 CNS) greater than 100 µM and a TGI (UO-31 renal) greater than 100 µM. The TGI (HS 578T breast) was greater than 100 µM, the TGI (RXF 393 renal) was greater than 100 µM and the TGI (RPMI-8226 leukemia) was greater than 100 µM. It also gave a TGI (SF-539 CNS) greater than 100 µM, a TGI (OVCAR-3 ovarian) greater than 100 µM and a TGI (HOP-92 NSCLC) greater than 100 µM. The TGI (SF-295 CNS) was greater than 100 µM, the TGI (MDA-MB-231 breast) was greater than 100 µM and the TGI (DU-145 prostate) was greater than 100 µM. The TGI (HOP-62 NSCLC) was greater than 100 µM, the TGI (TK-10 renal) was greater than 100 µM and the TGI (MDA-N) was greater than 100 µM. It also gave a TGI (BT-549 breast) greater than 100 µM, a TGI (MDA-MB-435) greater than 100 µM and a TGI (CAKI-1 renal) greater than 100 µM. For the same compound, the TGI (EKVX NSCLC) was greater than 100 µM, the TGI (ACHN renal) was greater than 100 µM and the TGI (HT29 colon) was greater than 100 µM. It also gave a TGI (HCC-2998 colon) greater than 100 µM, a TGI (NCI-H23 lung) greater than 100 µM and a TGI (LOX IMVI melanoma) greater than 100 µM. For the same compound, the TGI (SK-MEL-5 melanoma) was greater than 100 µM, the TGI (A549 NSCLC) was greater than 100 µM and the TGI (NCI/ADR-RES ovarian) was greater than 100 µM. The TGI (COLO 205 colon) was greater than 100 µM, the TGI (K-562 leukemia) was greater than 100 µM and the TGI (A498 renal) was greater than 100 µM. The TGI (T-47D breast) was 94 µM.
`COC(=O)[C@]1(C)CC[C@]2(C)CC[C@]3(C)C4[C@H]5Oc6c(cc7c(c6C)CCC6[C@@]7(C)CC[C@@]7(C)C8[C@](C)(CCC[C@@]8(C)C(=O)OC)CC[C@]67C)O[C@H]5c5c(cc6c(c5C)O[C@@]5(C)C7=CC=C8[C@@](C)(CC[C@@]9(C)[C@@H]%10C[C@](C)(C(=O)OC)CC[C@]%10(C)CC[C@]89C)C7=CC(=O)[C@@]5(O)O6)[C@]4(C)CC[C@@]3(C)C2C1` (stereo partly specified) was tested, and the TGI (SK-MEL-28 melanoma) was greater than 12.5 µM, the TGI (HL-60(TB) leukemia) was greater than 12.5 µM and the TGI (HCT-116 colon) was 6.63 µM. For the same compound, the TGI (M14 melanoma) was greater than 12.5 µM, the TGI (MCF7 breast) was 9.73 µM and the TGI (UACC-257 melanoma) was 6.52 µM. The TGI (HCT-15 colon) was 11.5 µM, the TGI (SK-MEL-2 melanoma) was 6.14 µM and the TGI (786-0 renal) was 3.59 µM. The TGI (SNB-19 CNS) was greater than 12.5 µM, the TGI (NCI-H226 lung) was greater than 12.5 µM and the TGI (SNB-75 CNS) was 10.5 µM. The TGI (IGROV1 ovarian) was 5.81 µM, the TGI (KM12 colon) was greater than 12.5 µM and the TGI (UACC-62 melanoma) was 4.61 µM. For the same compound, the TGI (SK-OV-3 ovarian) was greater than 12.5 µM, the TGI (SF-268 CNS) was greater than 12.5 µM and the TGI (PC-3 prostate) was greater than 12.5 µM. For the same compound, the TGI (SN12C renal) was 5.31 µM, the TGI (NCI-H522 lung) was 5.9 µM and the TGI (MOLT-4 leukemia) was 4.85 µM. The TGI (OVCAR-4 ovarian) was greater than 12.5 µM, the TGI (SW-620 colon) was 6.69 µM and the TGI (OVCAR-8 ovarian) was 5.95 µM. The TGI (NCI-H460 lung) was greater than 12.5 µM, the TGI (OVCAR-5 ovarian) was greater than 12.5 µM and the TGI (U251 CNS) was 11.4 µM. For the same compound, the TGI (UO-31 renal) was 5.11 µM, the TGI (HS 578T breast) was greater than 12.5 µM and the TGI (RXF 393 renal) was 4.01 µM. For the same compound, the TGI (SF-539 CNS) was 5.41 µM, the TGI (OVCAR-3 ovarian) was 5.91 µM and the TGI (CCRF-CEM leukemia) was 4.9 µM. It also gave a TGI (HOP-92 NSCLC) of 4.5 µM, a TGI (SF-295 CNS) greater than 12.5 µM and a TGI (MDA-MB-231 breast) of 7.08 µM. It also gave a TGI (DU-145 prostate) greater than 12.5 µM, a TGI (HOP-62 NSCLC) greater than 12.5 µM and a TGI (TK-10 renal) of 6.07 µM. For the same compound, the TGI (MDA-N) was 4.02 µM, the TGI (BT-549 breast) was greater than 12.5 µM and the TGI (MDA-MB-435) was 12.2 µM. The TGI (CAKI-1 renal) was greater than 12.5 µM, the TGI (EKVX NSCLC) was 10.5 µM and the TGI (ACHN renal) was greater than 12.5 µM. It also gave a TGI (MALME-3M melanoma) greater than 12.5 µM, a TGI (HT29 colon) greater than 12.5 µM and a TGI (NCI-H23 lung) greater than 12.5 µM. The TGI (LOX IMVI melanoma) was 4.56 µM, the TGI (SK-MEL-5 melanoma) was greater than 12.5 µM and the TGI (A549 NSCLC) was greater than 12.5 µM. The TGI (NCI/ADR-RES ovarian) was greater than 12.5 µM, the TGI (COLO 205 colon) was greater than 12.5 µM and the TGI (K-562 leukemia) was 11.6 µM. The TGI (A498 renal) was greater than 12.5 µM and the TGI (T-47D breast) was 6.94 µM.
